Patent publication US6403607B1, “Sulfonamide derivatives and drugs containing the same as the active ingredient” (priority 1998, dated 2002)
Converted amounts (≈) assume the structure as drawn. Read-outs that look alike come from different tables or passages of the source.

Legend:
[1] = tested on: ethanol ulcer in the gland gastric region; assay: Ethanol ulcer; type: in vivo; conditions: rats fasted 24 hours, drug oral, 99.5% ethanol 1 ml/rat after one hour, size of ulcer one hour later; for Suppression: dose not given
Method: Ethanol Ulcer Rats were fasted for 24 hours and orally administered with a drug. After one hour, 99.5% ethanol (1 ml/rat) was fed through oral administration. After one hour of ethanol administration, the abdomens of the rats were dissected and the size of ulcer in the gland gastric region was measured for each rat.

Helicobacter pylori = assay: Anti-Helicobacter-pylori action (agar plate dilution MIC); type: cell-based; conditions: clinically isolated 10 bacterial strains, agar plate dilution method
Method: Anti-Helicobacter-pylori Action
Using clinically isolated 10 bacterial strains, the minimum inhibitory concentration (MIC) was measured according to the agar plate dilution method.

[2] = tested on: HCl-ethanol ulcer in the gland gastric region; assay: HCl-ethanol ulcer; type: in vivo, Rats
Method: HCl-ethanol Ulcer Rats were fasted for 24 hours and orally administered with a drug. After one hour, 60% ethanol containing 0.15 N hydrochloric acid (1 ml/rat) was perorally administered to each rat. One hour after ethanol administration, the size of ulcer in the gland gastric region was measured for evaluation of anti-ulcer effects of the drug.

[3] = Helicobacter pylori, read-out: MIC
[4] = rats fasted 24 hours, drug oral, 60% ethanol containing 0.15 N hydrochloric acid 1 ml/rat after one hour, size of ulcer one hour later, dose not given

**Q.** What does the source list for `O=S(=O)(c1ccc(Cl)cc1)N(CCN1CCCC1)c1ccccc1NCCOc1ccc(Cl)cc1` [Example 8, N-(4-Chlorobenzenesulfonyl)-N-[2-(1-pyrolidino)ethyl]-N′-[2-(4-chlorophenoxy)ethyl]-o-phenylenediamine]?
**A.** Suppression [1]: 86%; MIC (Helicobacter pylori): 1.56 to 6.25 µg/mL

**Q.** `O=S(=O)(c1ccc(Cl)cc1)N(CCO)c1ccccc1NCCOc1ccc(Cl)cc1` [Example 9, N-(4-Chlorobenzenesulfonyl)-N-(2-hydroxyethyl]-N′-[2-(4-chlorophenoxy)ethyl]-o-phenylenediamine] was tested. Which Suppression [1] did it give?
**A.** 85%

**Q.** And the MIC (Helicobacter pylori; [3])?
**A.** 25 to 50 µg/mL (≈ 51.9 to 104 µM)

**Q.** What does the source list for `O=S(=O)(c1ccc(Cl)cc1)N(CCCc1ccncc1)c1ccccc1NCCOc1ccc(Cl)cc1` [Example 10, N-(4-Chlorobenzenesulfonyl)-N-[3-(4-pyridyl)propyl]-N′-[2-(4-chlorophenoxy)ethyl]-o-phenylenediamine]?
**A.** Suppression [1]: 82%; MIC (Helicobacter pylori; [3]): 25 to 100 µg/mL (≈ 44.9 to 180 µM)

**Q.** How did the Suppression [1] turn out when `COc1ccc(S(=O)(=O)N(CCN)c2ccccc2NCCOc2ccc(Cl)cc2)cc1` [Example 11, N-(2-Aminoethyl)-N-(4-methoxybenzenesulfonyl)-N′-[2-(4-chlorophenoxy)ethyl]-o-phenylenediamine] was run?
**A.** 96%

**Q.** `CNC(=NC#N)NCCOCCN(c1ccccc1NCCOc1ccc(Cl)cc1)S(=O)(=O)c1ccc(Cl)cc1` [Example 14, N-(4-Chlorobenzenesulfonyl)-N-[2-(2-cyano-3-methylguanidino)ethoxyethyl]-N′-[2-(4-chlorophenoxy)ethyl]-o-phenylenediamine] was tested. Which MIC (Helicobacter pylori; [3]) did it give?
**A.** 6.25 to 50 µg/mL (≈ 10.3 to 82.6 µM)

**Q.** Which MIC (Helicobacter pylori) does the source give for `O=C(NCCOCCN(c1ccccc1NCCOc1ccc(Cl)cc1)S(=O)(=O)c1ccc(Cl)cc1)NC1CCCCC1` [Example 17, N-(4-Chlorobenzenesulfonyl)-N-[2-(2-cyclohexylureido)ethoxyethyl]-N′-[2-(4-chlorophenoxy)ethyl]-o-phenylenediamine] here?
**A.** 25 to 50 µg/mL

**Q.** For `NCCOCCN(c1ccccc1NCCOc1ccc(Cl)cc1)S(=O)(=O)c1ccccc1` [Example 33], which Suppression [1] is on record?
**A.** 83%

**Q.** Which Suppression [1] does the source give for `Cc1ccc(S(=O)(=O)N(CCOCCN)c2ccccc2NCCOc2ccc(Cl)cc2)cc1` [Example 35, N-[2-(2-Amino)ethoxyethyl]-N-(p-toluenesulfonyl)-N′-[2-(4-chlorophenoxy)ethyl]-o-phenylenediamine] here?
**A.** 99%

**Q.** For `Cc1ccc(S(=O)(=O)N(CCN(C)C)c2ccccc2NCCOc2ccc(Cl)cc2)cc1.Cl` [Example 36, N-[2-(Dimethylamino)ethyl]-N-(p-toluenesulfonyl)-N′-[2-(4-chlorophenoxy)ethyl]-o-phenylenediamine Hydrochloride], which Suppression [2, 4] is on record?
**A.** 92%

**Q.** With `CN(C)CCN(c1ccccc1NCCOc1ccc(Cl)cc1)S(=O)(=O)c1cccc2ccccc12.Cl` [Example 38, N-[2-(Dimethylamino)ethyl]-N-(1-naphthalenesulfonyl)-N′-[2-(4-chlorophenoxy)ethyl]-o-phenylenediamine Hydrochloride] as the molecule, how does the Suppression [2, 4] read?
**A.** 93%

**Q.** For `NCCOCCN(c1ccccc1NCCOc1ccc(Cl)cc1)S(=O)(=O)c1ccc(F)cc1` [Example 41, N-[2-(2-Amino)ethoxyethyl]-N-(4-fluorobenzenesulfonyl)-N′-[2-(4-chlorophenoxy)ethyl]-o-phenylenediamine], which Suppression [1] is on record?
**A.** 93%

**Q.** For `CN(C)CCN(c1ccccc1NCCOc1ccc(Cl)cc1)S(=O)(=O)c1ccc(Br)cc1.Cl` [Example 44, N-[2-(Dimethylamino)ethyl]-N-(4-bromobenzenesulfonyl)-N′-[2-(4-chlorophenoxy)ethyl]-o-phenylenediamine.HCl], which Suppression ([2]; rat, in vivo, po) is on record?
**A.** 87%

**Q.** With `NCCOCCN(c1ccccc1NCCOc1ccc(F)cc1)S(=O)(=O)c1ccc(Cl)cc1` [Example 47, N-[2-(2-Amino)ethoxyethyl]-N-(4-chlorobenzenesulfonyl)-N′-[2-(4-fluorophenoxy)ethyl]-o-phenylenediamine] as the molecule, how does the Suppression [1] read?
**A.** 100%

**Q.** `CN(C)CCN(c1ccccc1NCCOc1ccc(F)cc1)S(=O)(=O)c1ccc(Cl)cc1.Cl` [Example 48, N-[2-(Dimethylamino)ethyl]-N-(4-chlorobenzenesulfonyl)-N′-[2-(4-fluorophenoxy)ethyl]-o-phenylenediamine Hydrochloride] was tested. Which Suppression [2, 4] did it give?
**A.** 85%

**Q.** Which Suppression [2, 4] does the source give for `CN(C)CCN(c1ccccc1NCCOc1ccc(Cl)cc1)S(=O)(=O)c1cccc(Cl)c1.Cl` [Example 52, N-[2-(Dimethylamino)ethyl]-N-(3-chlorobenzenesulfonyl)-N′-[2-(4-chlorophenoxy)ethyl]-o-phenylenediamine Hydrochloride] here?
**A.** 87%

**Q.** Which Suppression [2, 4] does the source give for `Cc1ccc(OCCNc2ccccc2N(CCN(C)C)S(=O)(=O)c2ccc(Cl)cc2)cc1.Cl` [Example 53, N-[2-(Dimethylamino)ethyl]-N-(4-chlorobenzenesulfonyl)-N′-[2-(4-methylphenoxy)ethyl]-o-phenylenediamine Hydrochloride] here?
**A.** 92%

**Q.** `CN(C)CCN(c1ccccc1NCCOc1ccc(Br)cc1)S(=O)(=O)c1ccc(Cl)cc1.Cl` [Example 54, N-[2-(Dimethylamino)ethyl]-N-(4-chlorobenzenesulfonyl)-N′-[2-(4-bromophenoxy)ethyl]-o-phenylenediamine Hydrochloride] was tested. Which Suppression [2, 4] did it give?
**A.** 77%

**Q.** How did the MIC (Helicobacter pylori; [3]) turn out when `NCCN(c1ccccc1NCCNc1ccc(Cl)cc1)S(=O)(=O)c1ccc(Cl)cc1` [Example 60, N-(2-Aminoethyl)-N-(4-chlorobenzenesulfonyl)-N′-[2-(4-chlorophenylamino)ethyl]-o-phenylenediamine] was run?
**A.** 6.25 to 25 µg/mL (≈ 13 to 52.1 µM)

**Q.** How did the MIC (Helicobacter pylori; [3]) turn out when `NCCN(c1ccccc1NCC=Cc1ccc(Cl)cc1)S(=O)(=O)c1ccc(Cl)cc1` [Example 62, N-(2-Aminoethyl)-N-(4-chlorobenzenesulfonyl)-N′-(4-chlorocinnamyl)-o-phenylenediamine] was run?
**A.** 1.56 to 12.5 µg/mL (≈ 3.27 to 26.2 µM)

**Q.** Which MIC (Helicobacter pylori; [3]) does the source give for `NCCN(c1ccccc1NCCSc1ccc(Cl)cc1)S(=O)(=O)c1ccc(Cl)cc1` [Example 65, N-(2-Aminoethyl)-N-(4-chlorobenzenesulfonyl)-N′-[2-(4-Chlorophenylthio)ethyl]-o-phenylenediamine] here?
**A.** 6.25 to 25 µg/mL (≈ 12.6 to 50.4 µM)

**Q.** How did the MIC (Helicobacter pylori) turn out when `O=S(=O)(Nc1cccnc1NCCNc1ccc(Cl)cc1)c1ccc(Cl)cc1` [Example 77] was run?
**A.** 6.25 to 12.5 µg/mL

**Q.** For `NCCN(c1cccnc1N1CCN(c2ccc(Cl)cc2)C(=O)C1=O)S(=O)(=O)c1ccc(Cl)cc1` [Example 92, 3-[N-(4-Chlorobenzenesulfonyl)-N-(2-aminoethyl)]amino-2-[4-(4-chlorophenyl)-2,3-dioxo-1-piperadino]pyridine], which MIC (Helicobacter pylori) is on record?
**A.** >100 µg/mL

**Q.** `O=S(=O)(c1ccc(Cl)cc1)N(CCN1CCNCC1)c1cccnc1NCCNc1ccc(Cl)cc1` [Example 97, 3-[N-(4-Chlorobenzenesulfonyl)-N-[2-(1-piperazinyl)ethyl]]amino-2-[2-(4-chlorophenyl)aminoethyl]aminopyridine] was tested. Which Suppression [1] did it give?
**A.** 81%

**Q.** What about the MIC (Helicobacter pylori) of the same molecule?
**A.** 25 to 100 µg/mL

**Q.** `NCCN(c1cccnc1NCCOc1ccc(Cl)cc1)S(=O)(=O)c1ccc(Cl)cc1` [Example 106, 2-[2-(4-Chlorophenoxy)ethyl]amino-3-[N-(2-aminoethyl)-N-(4-chlorobenzenesulfonyl)]aminopyridine] was tested. Which ED50 [1] did it give?
**A.** 8.4 mg/kg

**Q.** And the Suppression [1]?
**A.** 98%

**Q.** With `NCCN(c1cccnc1NCCN(c1ccc(Cl)cc1)S(=O)(=O)c1ccc(Cl)cc1)S(=O)(=O)c1ccc(Cl)cc1` [Example 111, 2-[2-[N-(4-Chlorophenyl)-N-(4-chlorobenzenesulfonyl)]aminoethyl]amino-3-[N-(2-aminoethyl)-N-(4-chlorobenzenesulfonyl)]aminopyridine] as the molecule, how does the Suppression [1] read?
**A.** 100%

**Q.** And the MIC (Helicobacter pylori)?
**A.** 25 µg/mL (≈ 38.2 µM)

**Q.** For `COc1ccc(NCCNc2ncccc2N(CCN)S(=O)(=O)c2ccc(OC)cc2)cc1` [Example 112, 3-[N-(2-Aminoethyl)-N-(4-methoxybenzenesulfonyl)]amino-2-[2-(4-methoxyphenyl)aminoethyl]aminopyridine], which MIC (Helicobacter pylori) is on record?
**A.** 12.5 to 50 µg/mL

**Q.** For `NCCN(c1cccnc1OCCNc1ccc(Cl)cc1)S(=O)(=O)c1ccc(Cl)cc1` [Example 113, 2-[2-(4-Chlorophenyl)aminoethoxy]-3-[N-(2-aminoethyl)-N-(4-chlorobenzenesulfonyl)]aminopyridine], which Suppression [1] is on record?
**A.** 87%

**Q.** And the MIC (Helicobacter pylori)?
**A.** 25 to 50 µg/mL

**Q.** For `Cc1ccc(NCCNc2ncccc2N(CCN)S(=O)(=O)c2ccc(C)cc2)cc1` [Example 114, 3-[N-(2-Aminoethyl)-N-(p-toluenesulfonyl)]amino-2-[2-(p-tolyl)aminoethyl]aminopyridine], which MIC (Helicobacter pylori) is on record?
**A.** 12.5 to 25 µg/mL

**Q.** Which Suppression [1] does the source give for `CCN(CCNc1ncccc1N(CCN)S(=O)(=O)c1ccc(Cl)cc1)c1ccc(Cl)cc1` [Example 116, 2-[2-[N-(4-Chlorophenyl)-N-ethyl]aminoethyl]amino-3-[N-(2-aminoethyl)-N-(4-chlorobenzenesulfonyl)]aminopyridine] here?
**A.** 99%

**Q.** What about the MIC (Helicobacter pylori) of the same molecule?
**A.** 6.25 to 12.5 µg/mL

**Q.** For `NCCN(c1ccccc1OCCNc1ccc(Cl)cc1)S(=O)(=O)c1ccc(Cl)cc1` [Example 122, 1-[2-(4-Chlorophenyl)aminoethoxy]-2-[N-(2-aminoethyl)-N-(4-chlorobenzenesulfonyl)]aminobenzene], which Suppression [1] is on record?
**A.** 99%

**Q.** What about the MIC (Helicobacter pylori) of the same molecule?
**A.** 12.5 to 25 µg/mL

**Q.** Which Suppression [1] does the source give for `NCCN(c1cccnc1N1CCN(c2ccc(Cl)cc2)CC1)S(=O)(=O)c1ccc(Cl)cc1` [Example 136, 2-[4-(4-Chlorophenyl)-1-piperazino]-3-[N-(2-aminoethyl)-N-(4-chlorobenzenesulfonyl)]aminopyridine] here?
**A.** 80%

**Q.** What about the MIC (Helicobacter pylori) of the same molecule?
**A.** 3.13 to 12.5 µg/mL

**Q.** `CN(C)CCN(c1cccnc1N1CCN(c2ccc(Cl)cc2)CC1)S(=O)(=O)c1ccc(Cl)cc1` [Example 138, 2-[4-(4-Chlorophenyl)-1-piperazino]-3-[N-(2-dimethylaminoethyl)-N-(4-chlorobenzenesulfonyl)]aminopyridine] was tested. Which MIC (Helicobacter pylori) did it give?
**A.** 3.13 to 12.5 µg/mL
